Laboratory results as given in patent US11377444B2, “Pyridopyrimidine compounds acting as mTORC 1/2 dual inhibitors” (MEDSHINE DISCOVERY INC., priority 2017, dated 2022).
Where two headings read alike, the source gives them in different places. Values belong to the compound of their own block, whether it stands above or below them.

Columns and labels:
[1] = molecular target: T1, mTOR kinase (mTORC1 and mTORC2 kinase complex) (Homo sapiens, UniProt P42345); test: In vitro evaluation of mTOR kinase inhibitory activity (DiscoverX ligand-bead competition binding, qPCR readout)
T1 construct: purchased DiscoverX; host or cells: HEK-293
Procedure: Experimental Embodiment 1: In Vitro Evaluation of mTOR Kinase Inhibitory Activity This experiment was performed by DiscoverX. All materials and methods were obtained from DiscoverX.
Kinase activity analysis.
1. Labeled mTOR kinase was stably expressed in HEK-293 cells.
2. Streptavidin magnetic beads were treated with biotinylated small molecule ligands at room temperature for 30 minutes to produce affinity resin for kinase analysis;
3. Ligand beads were blocked with excess biotin and washed with buffer (1% bovine serum albumin, […]) to remove unbound ligand and non-specifically bound ligand;
4. The assembly of kinase and ligand and affinity beads, and the binding reaction between the compound and the three were performed in buffer (20% blocking buffer, 0.17x phosphate buffer, 0.05% Tween […]);
5. The test compounds were dissolved in dimethyl sulfoxide;
6. All test compounds were dissolved in DMSO, and then directly diluted […]
7. The solution was placed in a 384-well polypropylene plate, wherein the volume of each well was 0.02 mL;
8. The plate was shaked for an hour at room temperature;
9. The plate was washed with buffer (1× PBS, 0.05% Tween 20);
10. The affinity beads were resuspended in buffer (1× PBS, 0.05% Tween […] non-biotin affinity ligand) and incubated at room temperature for 30 minutes;
11. The kinase concentration in the eluate was deteced by qPCR.

[2] = test system: MCF-7 cell; test: Cell proliferation inhibitory activity (Cell-Titer-Glo), MCF-7; assay type: cell-based; conditions: Homo sapiens, MCF7, 72 h; 3 days incubation
Excerpt: (§1) Experimental Embodiment 2: Evaluation of Cell Proliferation Inhibitory Activity
(§2) Experiment objective: To detect cell proliferation inhibitory activity of the tested compounds.
(§3) Experimental principle: The luciferase in the Cell-Titer-Glo reagent produces oxyluciferin using luciferin, oxygen and ATP as reaction substrates, and releases energy in the form of light. Since the reaction of luciferase requires ATP, the total amount of light generated by the reaction is proportional to the total amount of ATP that reflects cell viability.
(§4) Cell lines: MCF-7 cell line […], HT-29 cell line (ATCC-HTB-38), OE21 (ECACC-96062201), NCI-N87 cell line (ATCC-CRL-5822)
(§5) Cell culture medium: (RPMI 1640 culture medium (Invitrogen #1868546; 10% serum Invitrogen #1804958; L-glutamine 1×, Invitrogen #1830863; dual antibiotic Hyclone #J170012))
(§6) Cell Titer-Glo® Luminescent Cell Viability Assay Kit (Promega #G7573)
(§7) The cells were inoculated in a 384- or 96-well plate with a density of 1000 cells per well and 25 μL per well according to the instructions of the cell inoculating plate. The edge wells were not inoculated with cells, and was supplemented with […].
(§8) (i) The mother solution of the compound was 10 mM, and diluted with DMSO to an initial concentration of 4 mM. The compound was added to the compound mother solution, 9 μL per well.
(§9) (ii) The compound was diluted with ECHO liquid-handling workstation. Each well of the cell plate was added with 125 nL compound. Each well of the cell wells in 2nd column and 23rd column was added with 125 nL DMSO, and each of the PBS wells in 1st column and 24th column was added with 125 nL DMSO.
(§10) (iii) Each well of the cell plate was supplemented with 25 μL culture medium, the final volume in each well of the cell plate was 50 μL, […] 3 times dilution, 10 concentrations, each concentration was duplicated in left and right wells, the final DMSO concentration was 0.25%.
(§11) 2.3. After addition of the compound, centrifugation was performed at 1000 rpm for 1 min, and the cell plate was placed in a 37° C., 5% CO2 incubator for 3 days.
(§12) The cell plate was taken out from the incubator and equilibrated at room temperature for 30 minutes. 25 μL Cell-Titer-Glo reagent was added to each well, shaken for one minute to mix thoroughly, centrifuged at 1000 rpm for 1 minute. After 10 minutes, the plate was read on PerkinElmer Envision with a […] reading time was set at 0.2 second.

[3] = test system: HT-29 cell; test: Cell proliferation inhibitory activity (Cell-Titer-Glo), HT-29; assay type: cell-based; conditions: 3 days incubation
Excerpt: as §1, §2, §3, §4, §5, §6, §7, §8, §9, §10, §11, §12

[4] = test system: N87 cell; test: Cell proliferation inhibitory activity (Cell-Titer-Glo), N87; assay type: cell-based; conditions: 72 h; 3 days incubation
Excerpt: as §1, §2, §3, §4, §5, §6, §7, §8, §9, §10, §11, §12

[5] = Pharmacokinetic evaluation in plasma after IV and PO administration; assay type: in vivo; conditions: female Balb/c mice; for AUC(0-inf) / AUC(0-t) / C0 / clearance / half-life / MRT inf / MRT last / Vd / Cmax / Tmax / bioavailability: mouse; for MRT inf: read-out: MRT0-inf; for MRT last: read-out: MRT0-last; for Vd: read-out: Vdss
Procedure: Experimental Embodiment 3: Pharmacokinetic Evaluation
The test compound was mixed with […] (Cremophor EL), vortexed and sonicated to prepare a 1 mg/mL near-clear solution, which was filtered with a microporous filter membrane for future use. Female Balb/c mice of 18 to 20 grams were selected and the solution of the test compound was administered intravenously at a dose of 1 or 2 mg/kg. The test compound was mixed with an aqueous solution of 1% Tween 80, 9% polyethylene glycol 400, and 90% water, vortexed and sonicated to prepare 1 mg/mL near-clear solution, which was filtered with a microporous filter membrane for future use.
Female Balb/c mice of 18 to 20 grams were selected, and the solution of the test compound was orally administered at a dose of 2 or 10 mg/kg. The whole blood was collected at a certain time, and prepared into plasma. The drug concentration was analyzed by LC-MS/MS, and the pharmacokinetic parameters were calculated using Phoenix WinNonlin software (Pharsight Corporation, USA).

IC50 [3]: 1250 nM
Kd [1]: 0.38 nM
SMILES: CNC(=O)c1cccc(-c2ccc3c(N4CCOCC4C)nc(N4CCOC5(CC(O)C5)C4)nc3n2)c1 (single isomer, unassigned) [Embodiment 33-2]

IC50 [3]: 833 nM
Kd [1]: 0.73 nM
SMILES: CNC(=O)c1cccc(-c2ccc3c(N4CCOCC4C)nc(N4CCOC5(CC(OC)C5)C4)nc3n2)c1 (single isomer, unassigned) [Embodiment 34-2]

Kd [1]: 0.7 nM
IC50 [2]: 176 nM
SMILES: CNC(=O)c1cccc(-c2ccc3c(N4CCOCC4C)nc(N4CC5(CCOC5)OCC4C)nc3n2)c1 (single isomer, unassigned) [Embodiment 48-2]

IC50 ([3]; Homo sapiens, HT-29, 72 h): 1970 nM
Kd [1]: 0.78 nM
SMILES: CNC(=O)c1cccc(-c2ccc3c(N4CCOCC4C)nc(N4CCOC5(CC(O)C5)C4)nc3n2)c1 (single isomer, unassigned) [Embodiment 33-1]

Kd [1]: 0.7 nM
IC50 [2]: 636 nM
SMILES: CC1COCCN1c1nc(N2CCOC3(CCOC3)C2)nc2nc(-c3cccc(C(N)=O)c3)ccc12 (single isomer, unassigned) [Embodiment 50-2]

IC50 ([3]; Homo sapiens, HT-29, 72 h): 1050 nM
Kd [1]: 1 nM
SMILES: CNC(=O)c1cccc(-c2ccc3c(N4CCOCC4C)nc(N4CCOC5(CC(OC)C5)C4)nc3n2)c1 (single isomer, unassigned) [Embodiment 34-1]

The next lines start with the compound.

SMILES: C[C@H]1COCCN1c1nc(N2CCOC3(COC3)C2)nc2nc(-c3cccc(C(N)=O)c3)ccc12 [Embodiment 52]
Kd [1]: 0.8 nM
IC50 [2]: 586 nM

SMILES: CNC(=O)c1cccc(-c2ccc3c(N4CCOCC4C)nc(N4CCOC5(CCOC5)C4)nc3n2)c1 (single isomer, unassigned) [Embodiment 32-2]
IC50 [3]: 1410 nM
Kd [1]: 1.5 nM

SMILES: CNC(=O)c1cccc(-c2ccc3c(N4CC5CCC(C4)O5)nc(N4CCOC5(CC5)C4)nc3n2)c1 [Embodiment 26]
Kd [1]: 1 nM
IC50 [2]: 431 nM

SMILES: COc1ccc(-c2ccc3c(N4CCOC[C@@H]4C)nc(N4CCOC5(CC5)C4)nc3n2)cc1C(N)=O [Embodiment 56]
IC50 [4]: 167 nM

SMILES: CNC(=O)c1cccc(-c2ccc3c(N4CCOC[C@@H]4C)nc(N4CCOCC5(CCC5)C4)nc3n2)c1 [Embodiment 37]
IC50 [2]: 252 nM

SMILES: CNC(=O)c1cccc(-c2ccc3c(N4CCOCC4C)nc(N4CCC5(CC4)OCCO5)nc3n2)c1 (stereo not drawn) [Embodiment 12]
Kd [1]: 0.75 nM
IC50 [2]: 251 nM

SMILES: C[C@H]1COCCN1c1nc(N2CCOCC3(CC3)C2)nc2nc(-c3cccc(C(N)=O)c3)ccc12 [Embodiment 38]
IC50 [2]: 449 nM

SMILES: COc1ccc(-c2ccc3c(N4CCOC[C@@H]4C)nc(N4CCOC5(CC5)C4)nc3n2)cc1CO [Embodiment 54]
IC50 [4]: 119 nM

SMILES: CNC(=O)c1cccc(-c2ccc3c(N4CCOCC4C)nc(N4CCOC5(CCOC5)C4)nc3n2)c1 (single isomer, unassigned) [Embodiment 32-1]
IC50 ([3]; Homo sapiens, HT-29, 72 h): 744 nM
Kd [1]: 0.79 nM

SMILES: CNC(=O)c1cccc(-c2ccc3c(N4CCOC[C@@H]4C)nc(N4CCOC5(CCCC5)C4)nc3n2)c1 [Embodiment 24]
Kd [1]: 0.41 nM
IC50 [2]: 206 nM

SMILES: CNC(=O)c1cc(-c2ccc3c(N4CCOC[C@@H]4C)nc(N4CCOC5(CC5)C4)nc3n2)ccc1OC [Embodiment 55]
IC50 [4]: 120 nM
AUCExtra ([5]; IV 1 mg/kg): 0.0522%
AUMCExtra ([5]; IV 1 mg/kg): 0.540%
Tlast ([5]; IV 1 mg/kg): 12 h
AUCExtra ([5]; PO 2 mg/kg): 0.0673%
AUMCExtra ([5]; PO 2 mg/kg): 0.493%
Tlast ([5]; PO 2 mg/kg): 12.0 h
AUC(0-inf) ([5]; IV 1 mg/kg): 9.47 µM·h
AUC(0-t) ([5]; IV 1 mg/kg): 9.46 µM·h
C0 ([5]; IV 1 mg/kg): 9.7 µM
clearance ([5]; IV 1 mg/kg): 3.49 mL/min/kg
half-life ([5]; IV 1 mg/kg): 1.01 h
MRT inf ([5]; IV 1 mg/kg): 1.3 h
MRT last ([5]; IV 1 mg/kg): 1.29 h
Vd ([5]; IV 1 mg/kg): 0.272 L/kg
AUC(0-inf) ([5]; PO 2 mg/kg): 16.3 µM·h
AUC(0-t) ([5]; PO 2 mg/kg): 16.3 µM·h
Cmax ([5]; PO 2 mg/kg): 7.73 µM
Tmax ([5]; PO 2 mg/kg): 0.5 h
bioavailability ([5]; PO 2 mg/kg): 86.1%
half-life ([5]; PO 2 mg/kg): 1.15 h
MRT inf ([5]; PO 2 mg/kg): 1.86 h
MRT last ([5]; PO 2 mg/kg): 1.86 h

SMILES: C[C@H]1COCCN1c1nc(N2CCOC3(CC3)C2)nc2nc(-c3cccc(C(=O)NC4CC4)c3)ccc12 [Embodiment 21]
Kd [1]: 0.47 nM
IC50 [2]: 190 nM

SMILES: C[C@H]1COCCN1c1nc(N2CCOCC3(CCC3)C2)nc2nc(-c3cccc(C(N)=O)c3)ccc12 [Embodiment 36]
IC50 [2]: 360 nM

SMILES: CNC(=O)c1cccc(-c2ccc3c(N4CCOC[C@@H]4C)nc(N4CCOC5(CCOCC5)C4)nc3n2)c1 [Embodiment 13]
Kd [1]: 0.64 nM
IC50 [2]: 255 nM

SMILES: CNC(=O)c1cccc(-c2ccc3c(N4C5CCC4COC5)nc(N4CCOC5(CC5)C4)nc3n2)c1 [Embodiment 9]
Kd [1]: 0.34 nM
IC50 [2]: 262 nM

SMILES: CNC(=O)c1cccc(-c2ccc3c(N4CCOC[C@@H]4C)nc(N4CCOCC5(CC5)C4)nc3n2)c1 [Embodiment 39]
IC50 [2]: 268 nM

SMILES: C[C@H]1COC2(CCC2)CN1c1nc(N2CCOC[C@@H]2C)c2ccc(-c3cccc(C(N)=O)c3)nc2n1 [Embodiment 35]
IC50 [4]: 44 nM
AUCExtra ([5]; IV 1 mg/kg): 0.246%
AUMCExtra ([5]; IV 1 mg/kg): 1.59%
Tlast ([5]; IV 1 mg/kg): 12.0 h
AUCExtra ([5]; PO 2 mg/kg): 1.84%
AUMCExtra ([5]; PO 2 mg/kg): 8.59%
Tlast ([5]; PO 2 mg/kg): 8.00 h
AUC(0-inf) ([5]; IV 1 mg/kg): 7.4 µM·h
AUC(0-t) ([5]; IV 1 mg/kg): 7.38 µM·h
C0 ([5]; IV 1 mg/kg): 2.49 µM
clearance ([5]; IV 1 mg/kg): 5.07 mL/min/kg
half-life ([5]; IV 1 mg/kg): 1.38 h
MRT inf ([5]; IV 1 mg/kg): 2.16 h
MRT last ([5]; IV 1 mg/kg): 2.13 h
Vd ([5]; IV 1 mg/kg): 0.657 L/kg
AUC(0-inf) ([5]; PO 2 mg/kg): 8.75 µM·h
AUC(0-t) ([5]; PO 2 mg/kg): 8.59 µM·h
Cmax ([5]; PO 2 mg/kg): 3.49 µM
Tmax ([5]; PO 2 mg/kg): 0.25 h
bioavailability ([5]; PO 2 mg/kg): 56.1%
half-life ([5]; PO 2 mg/kg): 1.33 h
MRT inf ([5]; PO 2 mg/kg): 2.13 h
MRT last ([5]; PO 2 mg/kg): 1.98 h
Kd [1]: 0.4 nM
IC50 [2]: 105 nM
